Laboratory results taken from article PMC5485444 (Antibiotics, 2017).
Values after ≈ are worked out from the molar mass of the structure shown. Like-named read-outs stand apart in the source and are kept apart here.

How the values were obtained:
[1] = Solubility in DMSO / DMSO-d6 observed during 1H NMR; format: physicochemical; conditions: DMSO / DMSO-d6, NMR sample
Procedure: ^1H NMR was used to confirm the presence of AD in the AD-EM (Figure S1). Both EM and AD-EM were dissolved in deuterated dimethyl sulfoxide (DMSO-d6) and spectra acquired. The spectra are in agreement with the reported literature spectra, thus we looked to see changes in the spectra following the conjugation reaction. The processed spectra of each species were compared to monitor structural differences between protons from EM and AD-EM. The AD-EM spectra confirms the presence of both AD and EM, as well as hydrazone formation, indicating successful reaction. In the NMR spectra of AD-EM, AD attachment is confirmed by the presence of two multiplet peaks at approximately 1.9 ppm and from 1.6–1.8 ppm, corresponding to protons from the fused cyclohexane rings of AD. In the spectra of the AD-EM, a singlet peak, corresponding to a hydrazone, appears at 9.0 ppm. […] However, peak placement is consistent between AD-EM and EM, indicating the presence of both species in the AD-EM conjugate.
EM (approximately 40 mg) and AD-EM (approximately 40 mg) were dissolved in 500 µL of DMSO-d6, and sonication was used to promote dissolution. Samples were analyzed on a 600 MHz Varian Nuclear Magnetic Resonance Spectrometer, using 128 scans and a 45 degree pulse angle. Spectra were analyzed using MesReNova software using the residual solvent peak from DMSO-d6 as the reference.

[2] = system: S. aureus; experiment: Zone of inhibition antibacterial study with drug-loaded insoluble cyclodextrin polymer disks; format: cell-based, Staphylococcus aureus; conditions: approximately two weeks
Procedure: A zone of inhibition study against S. aureus was conducted for approximately two weeks using EM and AD-EM loaded into insoluble cyclodextrin polymer disks to evaluate whether the chemical modification altered the intrinsic antimicrobial activity of EM (Figure 4). […] It is possible that the slight decrease in antibacterial activity after 8 days in AD-EM (compared to EM) can be attributed to the presence of both species in the final AD-EM composition.
Synthesis of insoluble cyclodextrin polymer disks was carried out according to a previously published protocol by Thatiparti et al.. Briefly, 1 g cyclodextrin (CycloLab, Budapest, Hungary) was dissolved in 4 mL dimethylformamide (DMF) and stirred. The solution was cross-linked with hexamethylene diisocyanate (HDI; Sigma Aldrich, St. Louis, MO, USA) in a molar ratio of 1:0.16 (glucose residue: HDI). The solution was cured at 70 °C for 45 min and punched into 8 mm disks. Disks were washed to removed unreacted products over several days in 100% DMF, 50:50 DMF:water, and 100% water before use. […]
The antibacterial activity of EM and AD-EM loaded insoluble cyclodextrin polymer disks was evaluated against S. aureus (GFP labeled S. aureus kindly provided by Ed Greenfield, Case Western Reserve University, Cleveland, OH, USA) according to the protocol outlined by Thatiparti et al.. […]

[3] = Solubility study in aqueous buffers and organic solvents; format: physicochemical
Procedure: The solubility of AD-EM compared to EM was evaluated in several different aqueous buffers (i.e., PBS, Water, Acetate pH 5.0) and polar solvents (i.e., methanol, ethyl acetate, acetone). The solubility study presented in Table 1 further verifies that modified AD-EM is more hydrophobic than EM due to the addition of the hydrophobic AD group. […] The increased hydrophobicity of AD-EM is desirable to enhance its ability to bind to tissue, thereby increasing its tissue residence time and therapeutic activity.
Small samples of both EM and AD-EM (1–3 mg samples for aqueous solvents (water, PBS (pH 7.4), and acetate buffer (pH 5.0)); 10 mg samples for methanol, ethyl acetate, and acetone) were placed in individual vials. Each solvent was gradually added to either the EM or AD-EM samples in 50–100 µL increments until the drug sample was completely dissolved and the solution was homogeneous. Three trials were completed for each drug in each solvent and the results are reported as an average of these three trials. The solubility limit of each drug was determined to be the minimum amount of volume of each solvent where the drug was completely soluble.

[4] = Acidic stability / acidic conversion absorbance spectral scan; format: physicochemical; conditions: for Acidic conversion over several hours (absorbance pattern, words): pH 5.0 vs neutral vs acidic later neutralized, t = several hours
Procedure: The PBS solution was diluted to a concentration of 70 μM and concentrated sulfuric acid ([…]) was added to the solution in a volume equal to that of the total volume of the initial 70 µM solution to elicit a color change detectable with absorbance spectroscopy. Two separate solutions were initially created with the acetate buffer. One solution was diluted to 70 μM and allowed to sit for several hours at room temperature. The other acetate solution was diluted to a slightly higher concentration, sat for 1 h at room temperature, was neutralized with sodium hydroxide (0.1 N) (such that the concentration of the solution was 70 µM), and sat for several more hours at room temperature. Both acetate solutions were treated with equal volumes of sulfuric acid to elicit a color change.

[5] = system: S. aureus biofilms; experiment: Bacterial biofilm penetration study (colonies remaining in mature biofilm); format: cell-based, Staphylococcus aureus; conditions: for % Control Colonies Remaining: 1.25 mg/mL, mature (72 h) biofilm, vs 90% PBS/10% DMSO control; for Original colonies in the biofilm eradicated: 1 h exposure; for Original colonies killed: 7 h exposure; for Additional killing compared to the 7 h time point: 24 h exposure
Procedure: The ability to penetrate through the biofilm is related to the number of bacteria remaining in the biofilm after exposure to a drug compared to the control condition (90% PBS/10% DMSO). The control condition was set-up in such a way that the biofilm coated cyclodextrin polymer was placed in a solution under the same conditions used to make the drug-containing solutions. The colonies remaining in the biofilms after 1, 7, and 24 h after being treated with AD-EM, EM, or the control solution are reported in Table 2, where the remaining colonies from drug-treated biofilms are compared to the number of colonies in a control solution. After only 1 h of exposure to the drug (AD-EM or EM), nearly 30% of the original colonies in the biofilm were eradicated, and after 7 h of drug (AD-EM or EM) exposure >85% of the original colonies were killed. […] We hypothesize that this could be due to presence of planktonic bacteria naturally resistant to antibiotic effect, as well as the development of drug-resistant bacteria that are unable to be fully eradicated even after extended periods of exposure time to the drug. […] High variability in the studies reflects both the inconsistent nature of the biofilm as well as difficulty recovering bacteria to make accurate counts.
5 mm insoluble cyclodextrin polymer disks were placed in 3 mL solutions of 2× Trypticase soy broth with 30 μL of freshly cultured GFP-labeled S. aureus. Solutions were incubated at 37 °C for 72 h to form a mature biofilm. Each condition was set-up in triplicate. Following incubation, polymer disks were removed from the bacterial culture, excess broth removed, and placed in a 1.25 mg/mL drug solution of either EM or AD-EM dissolved in PBS with 10% DMSO. As a control, biofilm coated disks were also placed in a solution of just PBS and 10% DMSO. Each solution was placed in a laboratory shaker at 37 °C for either 1, 7, or 24 h. After this time, disks were removed from the drug solution, dried off, and placed in 4 mL of sterile Trypticase soy broth and homogenized for 30 s with an Omni TH homogenizer. Then, 70 μL of each solution was spread in duplicate on Trypticase soy agar plates and incubated overnight. Bacterial colonies were then counted and averaged using ImageJ software. Bacterial eradication was calculated as the percentage of colonies remaining in drug treated samples after different time points compared to the control colonies at that time point.

[6] = system: S. aureus biofilms; experiment: as above; format: cell-based, Staphylococcus aureus; conditions: 48 and 72 h exposure, data not shown
[7] = aqueous buffer, thermodynamic from solid, Acetate buffer, pH 5.0, n = 3, read-out: Relative solubility in acetate buffer
[8] = aqueous buffer, thermodynamic from solid, Phosphate Buffered Saline (PBS), pH 7.4, n = 3, read-out: Relative solubility in PBS
[9] = organic solvent or mixture, thermodynamic from solid, Acetone, n = 3, read-out: Relative solubility in acetone
[10] = organic solvent or mixture, thermodynamic from solid, Ethyl Acetate, n = 3, read-out: Relative solubility in ethyl acetate
[11] = organic solvent or mixture, thermodynamic from solid, Methanol, n = 3, read-out: Relative solubility in methanol
[12] = thermodynamic from solid, Water, n = 3, read-out: Relative solubility in water

| SMILES | Solubility in DMSO [1] | Zone of inhibition activity [2] | solubility [3, 7] [µg/mL] | solubility [3, 8] [µg/mL] | solubility [3, 9] [µg/mL] | solubility [3, 10] [µg/mL] | solubility [3, 11] [µg/mL] | solubility [3, 12] [µg/mL] | Acidic conversion over several hours (absorbance pattern, words) [4] | % Control Colonies Remaining ([5]; 1 h drug incubation) | Original colonies in the biofilm eradicated [5] [%] | % Control Colonies Remaining ([5]; 7 h drug incubation) | Original colonies killed [5] [%] | % Control Colonies Remaining ([5]; 24 h drug incubation) | Additional killing compared to the 7 h time point [5] | also measured |
| --- | --- | --- | --- | --- | --- | --- | --- | --- | --- | --- | --- | --- | --- | --- | --- | --- |
| NNC(=O)C12CC3CC(CC(C3)C1)C2 [AD, adamantane-1-carbohydrazide] | completely insoluble | – | – | – | – | – | – | – | – | – | – | – | – | – | – | – |
| CC[C@H]1OC(=O)[C@H](C)[C@@H](OC2C[C@@](C)(OC)[C@@H](O)[C@H](C)O2)[C@H](C)[C@@H](OC2O[C@H](C)C[C@H](N(C)C)[C@H]2O)[C@](C)(O)C[C@@H](C)/C(=N\NC(=O)C23CC4CC(CC(C4)C2)C3)[C@H](C)[C@@H](O)[C@]1(C)O (stereo partly drawn) [AD-EM, adamantane-modified erythromycin] | slightly insoluble | comparable activity | 1390 ± 40 (≈ 1.53 mM) | 340 ± 10 (≈ 0.374 mM) | 37500 (≈ 41.2 mM) | > 40000 | 7300 ± 200 (≈ 8.02 mM) | 330 ± 30 (≈ 0.363 mM) | no distinguishable differences | 62.7% ± 22.1% | ~30 | 14.8% ± 13.7% | > 85 | 11.7% ± 7.9% | ~ 2% | solubility ([3]; several polar solvents, comparable to EM, read-out: Solubility in several polar solvents): ~40000 µg/mL (≈ 43.9 mM); Acidic conversion over several days (absorbance signal, words) ([4]; pH 5.0 vs neutral, t = several days): lower absorbance signal than in neutral conditions |
| CC[C@H]1OC(=O)[C@H](C)[C@@H](O[C@H]2C[C@@](C)(OC)[C@@H](O)[C@H](C)O2)[C@H](C)[C@@H](O[C@@H]2O[C@H](C)C[C@H](N(C)C)[C@H]2O)[C@](C)(O)C[C@@H](C)C(=O)[C@H](C)[C@@H](O)[C@]1(C)O [EM, Erythromycin] | – | comparable activity | 15000 (≈ 20.4 mM) | 1600 ± 400 (≈ 2.18 mM) | > 40000 | > 40000 | > 40000 | 1500 ± 200 (≈ 2.04 mM) | noticeable acidic conversion | 71.6% ± 40.2% | ~30 | 10.5% ± 6.8% | > 85 | 8.3% ± 6.6% | ~ 2% | Colonies remaining after extended exposure [6]: approximately the same number of colonies remained; Absorbance signal in acidic solution ([4]; acetate pH 5.0, several hours, after 27 N sulfuric acid, 35 μM final): 0.17; Absorbance signal, acidic solution later neutralized ([4]; acetate pH 5.0 then neutralized with NaOH, several hours): 0.22; Absorbance signal in neutral solution ([4]; neutral PBS, after 27 N sulfuric acid, 35 μM final): 0.22 |
